These results are taken from patent US20230365592A1 (Agios Pharmaceuticals, Inc., priority 2022, published 2023).

The first assay has as its target T1, human PAH with the R408W mutation (Homo sapiens, UniProt P00439, R408W).
T1 construct: expressed in transfected cells
T1 sequence (P00439 1-452 R408W): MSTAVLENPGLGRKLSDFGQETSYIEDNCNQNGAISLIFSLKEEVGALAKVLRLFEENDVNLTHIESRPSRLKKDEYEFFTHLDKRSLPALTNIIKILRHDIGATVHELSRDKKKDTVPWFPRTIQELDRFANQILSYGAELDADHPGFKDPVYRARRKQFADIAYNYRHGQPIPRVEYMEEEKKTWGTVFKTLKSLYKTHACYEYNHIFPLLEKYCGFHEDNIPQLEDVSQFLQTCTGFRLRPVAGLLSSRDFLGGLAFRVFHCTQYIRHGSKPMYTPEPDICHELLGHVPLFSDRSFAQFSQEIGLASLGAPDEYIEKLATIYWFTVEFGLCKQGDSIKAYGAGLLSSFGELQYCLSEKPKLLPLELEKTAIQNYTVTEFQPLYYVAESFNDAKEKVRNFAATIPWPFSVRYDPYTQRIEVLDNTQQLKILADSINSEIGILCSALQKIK
Put plainly: Cell Based Phenylalanine Flux Assay.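 Note: after compound treatment, cells received sepiapterin plus isotope-labelled Phenylalanine for 4 hours, then labelled Tyrosine in the medium was quantified, 10-point 2-fold dilution series run in duplicate.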 Particulars: A375 cells expressing R408W PAH; 24 hrs with compound, then 20 µM sepiapterin and 800 µM 13C9,15N-Phenylalanine for 4 hours; 13C-Tyrosine by LC-MS; average where tested multiple times; read-out: AC50.
A word on the AC50: it is the midpoint of the concentration-response curve, whichever way the signal moves. `Cc1c(C2c3nc[nH]c3CCN2C(=O)c2nnc(-c3cnn(C)c3C)o2)nn2ccccc12` (stereo not shown): the AC50 is 1000 to 5000 nM.
Still for that read-out and setting: under `c1cncc(-c2nnc(N3CCc4[nH]cnc4C3c3cc4ccccn4n3)o2)c1` (stereo not shown) stands > 5000 nM; under `FC1(F)CC(c2nnc(N3CCc4[nH]cnc4C3c3cc4c(C5CC5)cccn4n3)o2)C1` (stereo not shown), 1000 to 5000 nM.
Still for that read-out and setting: the result for `O=C(c1nnc(C2CC(F)(F)C2)o1)N1CCc2[nH]cnc2[C@@H]1c1cc2cccc(C(F)F)n2n1` (single isomer, unassigned) reads > 5000 nM; that for `Fc1cccnc1-c1nnc(N2CCc3[nH]cnc3C2c2cc3c(C4CC4)cccn3n2)o1` (stereo not shown), 1000 to 5000 nM.
Consider `O=C(c1nnc(-c2cnn(C(F)(F)F)c2)o1)N1CCc2[nH]cnc2C1c1cc2cccc(F)n2n1` (stereo not shown), for which the AC50 fell in the range of 1000 to 5000 nM.
As for `CN(C)c1ccc2c(C(=O)N3CCc4[nH]cnc4C3c3cc4cccc(C(F)F)n4n3)cnn2c1` (stereo not shown), the AC50 was in the range of 1000 to 5000 nM.
For the compound `Cn1nc(C(C)(C)C)cc1C(=O)N1CCc2[nH]cnc2C1c1cc2ccccn2n1` (stereo not shown), the AC50 is 1000 to 5000 nM.

Staying with this assay, now noted: A375 cells expressing human PAH R408W; 24 hrs compound incubation; 13C-Tyrosine by LC-MS; average where tested multiple times; read-out: AC50.
For the compound `O=C(c1cnn(CC(F)(F)F)c1C(F)F)N1CCc2[nH]cnc2[C@@H]1c1cc2ccccn2n1` [Example 2369, (R)-(5-(difluoromethyl)-1-(2,2,2-trifluoroethyl)-1H-pyrazol-4-yl)(4-(pyrazolo[1,5-a]pyridin-2-yl)-6,7-dihydro-1H-imidazo[4,5-c]pyridin-5(4H)-yl)methanone], the AC50 is > 5000 nM.
For `CC(C)(F)c1nnc(C(=O)N2CCc3[nH]cnc3[C@@H]2c2cc3ccc(C(F)(F)F)cn3n2)o1` [Example 2421, (R)-(5-(2-fluoropropan-2-yl)-1,3,4-oxadiazol-2-yl)(4-(6-(trifluoromethyl)pyrazolo[1,5-a]pyridin-2-yl)-6,7-dihydro-1H-imidazo[4,5-c]pyridin-5(4H)-yl)methanone], the AC50 is 1000 to 5000 nM.
As for `CC(C)c1cccn2nc([C@@H]3c4nc[nH]c4CCN3c3nnc(C(F)F)o3)cc12` [Example 2085, (S)-2-(difluoromethyl)-5-(4-(4-isopropylpyrazolo[1,5-a]pyridin-2-yl)-1,4,6,7-tetrahydro-5H-imidazo[4,5-c]pyridin-5-yl)-1,3,4-oxadiazole], the AC50 was < 500 nM.
Same read-out and setting: the result for `FC(F)c1cccc2cc([C@@H]3c4nc[nH]c4CCN3c3ccc(C(F)(F)F)cn3)nn12` [Example 2138, (S)-4-(7-(difluoromethyl)pyrazolo[1,5-a]pyridin-2-yl)-5-(5-(trifluoromethyl)pyridin-2-yl)-4,5,6,7-tetrahydro-1H-imidazo[4,5-c]pyridine] reads < 500 nM.
The same measure, in the same setting: the result for `CCc1cccn2nc([C@H]3c4nc[nH]c4CCN3C(=O)c3nnc(-c4ccn(C)n4)o3)cc12` [Example 1926, (R)-(4-(4-ethylpyrazolo[1,5-a]pyridin-2-yl)-1,4,6,7-tetrahydro-5H-imidazo[4,5-c]pyridin-5-yl)(5-(1-methyl-1H-pyrazol-3-yl)-1,3,4-oxadiazol-2-yl)methanone] reads > 5000 nM; that for `Cn1ccc(-c2nnc(C(=O)N3CCc4[nH]cnc4[C@H]3c3cc4c(F)cccn4n3)s2)n1` [Example 1995, (S)-(4-(4-fluoropyrazolo[1,5-a]pyridin-2-yl)-1,4,6,7-tetrahydro-5H-imidazo[4,5-c]pyridin-5-yl)(5-(1-methyl-1H-pyrazol-3-yl)-1,3,4-thiadiazol-2-yl)methanone], < 500 nM; that for `Cn1cc(-c2ccc3c(C(=O)N4CCc5[nH]cnc5[C@@H]4c4cc5c(F)cccn5n4)cnn3c2)cn1` [Example 2435, (R)-(4-(4-fluoropyrazolo[1,5-a]pyridin-2-yl)-6,7-dihydro-1H-imidazo[4,5-c]pyridin-5(4H)-yl)(6-(1-methyl-1H-pyrazol-4-yl)pyrazolo[1,5-a]pyridin-3-yl)methanone], > 5000 nM.
Take `CN(C)c1ccc2c(C(=O)N3CCc4[nH]cnc4[C@H]3c3cc4cccc(C(F)(F)F)n4n3)cnn2c1` [Example 2472, (S)-(6-(dimethylamino)pyrazolo[1,5-a]pyridin-3-yl)(4-(7-(trifluoromethyl)pyrazolo[1,5-a]pyridin-2-yl)-6,7-dihydro-1H-imidazo[4,5-c]pyridin-5(4H)-yl)methanone]: the AC50 fell in the range of 1000 to 5000 nM.

Staying with this assay, now noted: A375 cells expressing human R408W PAH; 24 hrs compound incubation; 13C-Tyrosine by LC-MS; average where tested multiple times; read-out: AC50.
Turning to `Cc1cccn2nc([C@@H]3c4nc[nH]c4CCN3C(=O)c3nnc(-c4ccc(F)cn4)o3)cc12` [Example 875, (S)-(5-(5-fluoropyridin-2-yl)-1,3,4-oxadiazol-2-yl)(4-(4-methylpyrazolo[1,5-a]pyridin-2-yl)-6,7-dihydro-1H-imidazo[4,5-c]pyridin-5(4H)-yl)methanone], the AC50 was < 500 nM.
As to `O=C(c1nnc(-c2ncccn2)o1)N1CCc2[nH]cnc2[C@H]1c1cc2c(C(F)(F)F)cccn2n1` [Example 1381, (S)-(5-(pyrimidin-2-yl)-1,3,4-oxadiazol-2-yl)(4-(4-(trifluoromethyl)pyrazolo[1,5-a]pyridin-2-yl)-6,7-dihydro-1H-imidazo[4,5-c]pyridin-5(4H)-yl)methanone], the AC50 lay within 500 to 1000 nM.
On the same count and under the same terms, under `O=C(c1nnc(C2CC2)o1)N1CCc2[nH]cnc2[C@H]1c1cc2cc(F)ccn2n1` [Example 1130, (S)-(5-cyclopropyl-1,3,4-oxadiazol-2-yl)(4-(5-fluoropyrazolo[1,5-a]pyridin-2-yl)-6,7-dihydro-1H-imidazo[4,5-c]pyridin-5(4H)-yl)methanone] stands 500 to 1000 nM.
Regarding `Cc1cccc2cc([C@@H]3c4nc[nH]c4CCN3C(=O)c3cc(C(F)F)nn3C)nn12` [Example 1388, (S)-(3-(difluoromethyl)-1-methyl-1H-pyrazol-5-yl)(4-(7-methylpyrazolo[1,5-a]pyridin-2-yl)-6,7-dihydro-1H-imidazo[4,5-c]pyridin-5(4H)-yl)methanone], the AC50 is < 500 nM.
Still for that read-out and setting: under `Cn1ccc(-c2nnc(C(=O)N3CCc4[nH]cnc4[C@H]3c3cc4cccc(C(F)F)n4n3)o2)n1` [Example 1438, (S)-(4-(7-(difluoromethyl)pyrazolo[1,5-a]pyridin-2-yl)-6,7-dihydro-1H-imidazo[4,5-c]pyridin-5(4H)-yl)(5-(1-methyl-1H-pyrazol-3-yl)-1,3,4-oxadiazol-2-yl)methanone] stands 500 to 1000 nM; under `O=C(c1cnn2ccccc12)N1CCc2[nH]cnc2[C@H]1c1cc2c(Cl)cccn2n1` [Example 1272, (S)-(4-(4-chloropyrazolo[1,5-a]pyridin-2-yl)-6,7-dihydro-1H-imidazo[4,5-c]pyridin-5(4H)-yl)(pyrazolo[1,5-a]pyridin-3-yl)methanone], < 500 nM.
For `Cc1cnn(C)c1-c1nnc(C(=O)N2CCc3[nH]cnc3[C@@H]2c2cc3c(F)cccn3n2)o1` [Example 929, (R)-(5-(1,4-dimethyl-1H-pyrazol-5-yl)-1,3,4-oxadiazol-2-yl)(4-(4-fluoropyrazolo[1,5-a]pyridin-2-yl)-6,7-dihydro-1H-imidazo[4,5-c]pyridin-5(4H)-yl)methanone], the half-maximal activity concentration (AC50) is > 5000 nM.
The same measure, in the same setting: the result for `Cc1cccn2nc([C@@H]3c4nc[nH]c4CCN3C(=O)c3oc(C(C)(C)O)nc3C(F)F)cc12` [Example 736, (S)-(4-(difluoromethyl)-2-(2-hydroxypropan-2-yl)oxazol-5-yl)(4-(4-methylpyrazolo[1,5-a]pyridin-2-yl)-6,7-dihydro-1H-imidazo[4,5-c]pyridin-5(4H)-yl)methanone] reads < 500 nM; that for `Cc1cccn2nc([C@@H]3c4nc[nH]c4CCN3c3nc4ccccc4o3)cc12` [Example 1643, (S)-2-(4-(4-methylpyrazolo[1,5-a]pyridin-2-yl)-6,7-dihydro-1H-imidazo[4,5-c]pyridin-5(4H)-yl)benzo[d]oxazole], 500 to 1000 nM.
